# ChEMBL document CHEMBL1128211, “3D-quantitative structure-activity relationships of human immunodeficiency virus type-1 proteinase inhibitors: comparative molecular field analysis of 2-heterosubstituted statine derivatives-implications for the design of novel inhibitors” (J Med Chem, 1995)
# Biological target: Human immunodeficiency virus type 1 protease (Human immunodeficiency virus 1, UniProt Q72874)
# Assay: Inhibitory activity was determined against HIV type 1 protease
row,Compound,Ki
1,Cc1cn(CCO)c(=O)n(CCOC(=O)[C@@H](NC(=O)[C@H](NCc2ccccc2)[C@H](O)[C@H](Cc2ccccc2)NC(=O)[C@@H](NC(=O)OCc2ccccc2)C(C)C)C(C)C)c1=O,0.55 µM
2,CC(C)(C)OC(=O)N[C@@H](Cc1ccccc1)[C@@H](O)[C@@H](NCc1ccc(CNC(=O)CCc2nc3ccccc3[nH]2)cc1)C(=O)N[C@H]1c2ccccc2CC1O (some centres undefined),0.0407 µM
3,CC(C)[C@H](NC(=O)[C@H](NCc1ccccc1)[C@H](O)[C@H](Cc1ccccc1)NC(=O)OC(C)(C)C)C(=O)NCc1ccccc1,0.158 µM
4,COc1ccc(C[C@H](NC(=O)OC(C)(C)C)[C@@H](O)[C@@H](NCc2ccc(Cl)cc2)C(=O)N[C@H](C(=O)NCc2nc3ccccc3[nH]2)C(C)C)cc1,0.00891 µM
5,COc1ccc(CN[C@@H](C(=O)NCc2nc3ccccc3[nH]2)[C@H](O)[C@H](Cc2ccccc2)NC(=O)OC(C)(C)C)cc1,2.29 µM
6,CC(C)(C)OC(=O)N[C@@H](Cc1ccccc1)[C@@H](O)[C@@H](NCc1ccc(CNC(=O)Nc2ccccc2)cc1)C(=O)N[C@H]1c2ccccc2CC1O (some centres undefined),0.0331 µM
7,CC(C)(C)OC(=O)N[C@@H](Cc1ccccc1)[C@@H](O)[C@@H](NCc1ccc(OCCO)cc1)C(=O)NCc1ccccc1,1.2 µM
8,COc1ccc(CN[C@@H](C(=O)N[C@H]2c3ccccc3CC2O)[C@H](O)[C@H](Cc2ccccc2)NC(=O)[C@@H](NC(=O)c2cn3cccnc3n2)C(C)(C)C)cc1 (some centres undefined),0.0229 µM
9,CC[C@H](C)[C@H](NC(=O)[C@H](NCc1ccccc1)[C@H](O)[C@H](Cc1ccccc1)NC(=O)[C@@H](NC(=O)OCc1ccccc1)C(C)C)C(=O)NCc1ccccc1,0.0437 µM
10,CC(C)[C@H](NC(=O)OCc1ccccn1)C(=O)N[C@@H](Cc1ccccc1)[C@@H](O)[C@@H](NCc1ccccc1)C(=O)N[C@H](C(=O)NCc1ccccn1)C(C)C,0.0269 µM
11,CCOC(=O)[C@H](NCc1ccc(CNC(=O)c2ccccc2)cc1)[C@H](O)[C@H](Cc1ccccc1)NC(=O)[C@@H](NC(=O)OCc1ccccc1)C(C)C,0.933 µM
12,COc1ccc(CN[C@@H](C(=O)N[C@H](C(=O)N(C)Cc2nc3ccccc3[nH]2)C(C)C)[C@H](O)[C@H](Cc2ccccc2)NC(=O)OC(C)(C)C)cc1,0.012 µM
13,COc1ccc(CN[C@@H](C(=O)N[C@H]2c3ccccc3CC2O)[C@H](O)[C@H](Cc2ccccc2)NC(=O)OC(C)(C)C)cc1 (some centres undefined),0.148 µM
14,COc1ccc(CN[C@@H](C(=O)N[C@H](C(=O)NCc2ccc(OC)cc2OC)C(C)C)[C@H](O)[C@H](Cc2ccccc2)NC(=O)[C@@H](NC(=O)OCc2ccccc2)C(C)C)cc1,0.00417 µM
15,COc1ccc(CN[C@@H](C(=O)N[C@H]2c3ccccc3CC2O)[C@H](O)[C@H](Cc2ccccc2)NC(=O)[C@@H](NC(=O)OC(C)(C)C)C(C)(C)C)cc1 (some centres undefined),0.209 µM
16,COc1ccc(CN[C@@H](C(=O)N[C@H](C(=O)NCc2nc3ccccc3[nH]2)C(C)C)[C@H](O)[C@H](Cc2ccccc2)NC(=O)[C@@H](NC(=O)[C@@H](O)Cc2ccccc2)C(C)(C)C)cc1,0.00603 µM
17,CC(C)[C@H](NC(=O)[C@H](NCc1ccccc1)[C@H](O)[C@H](Cc1ccccc1)NC(=O)[C@@H](NC(=O)[C@@H](O)Cc1ccccc1)C(C)(C)C)C(=O)NCc1ccccc1,0.0151 µM
18,CC(C)[C@H](NC(=O)[C@H](NCc1ccccc1)[C@H](O)[C@H](Cc1ccccc1)NC(=O)[C@@H](NC(=O)CC1NC(=O)NC1=O)C(C)(C)C)C(=O)NCc1ccccc1 (some centres undefined),0.011 µM
19,CC(C)[C@H](NC(=O)[C@H](NCc1ccc(Cl)cc1)[C@H](O)[C@H](Cc1ccccc1)NC(=O)OC(C)(C)C)C(=O)NCc1nc2ccccc2[nH]1,0.011 µM
20,CC(C)(C)OC(=O)N[C@@H](Cc1ccccc1)[C@@H](O)[C@@H](NCc1ccccc1)C(=O)NCc1ccccc1,2.51 µM
21,CC(C)[C@H](NC(=O)[C@H](NCc1ccccc1)[C@H](O)[C@H](Cc1ccccc1)NC(=O)[C@H](O)C(C)C)C(=O)NCc1ccccc1,0.794 µM
22,COc1ccc(CN[C@@H](C(=O)N[C@H](C(=O)NCc2nc3ccccc3[nH]2)C(C)C)[C@H](O)[C@H](Cc2ccccc2)NC(=O)[C@@H](NC(=O)OC(C)(C)C)C(C)C)cc1,0.0209 µM
23,CC(C)[C@H](NC(=O)OCc1ccccc1)C(=O)N[C@@H](Cc1ccccc1)[C@@H](O)[C@H](NCc1ccccc1)C(=O)N[C@H](C(=O)NCc1cccnc1)C(C)C,0.141 µM
24,CC(C)[C@H](N)C(=O)N[C@@H](Cc1ccccc1)[C@@H](O)[C@@H](NCc1ccccc1)C(=O)N[C@H](C(=O)NCc1ccccc1)C(C)C,0.741 µM
25,CCOc1ccc(CN[C@@H](C(=O)N[C@H](C(=O)NCc2nc3ccccc3[nH]2)C(C)C)[C@H](O)[C@H](Cc2ccccc2)NC(=O)[C@@H](NC(=O)OCc2ccccc2)C(C)C)cc1,0.024 µM
26,COc1ccc(CN[C@@H](C(=O)NC2c3ccccc3C[C@H]2O)[C@H](O)[C@H](Cc2ccccc2)NC(=O)[C@@H](NC(=O)C(O)Cc2ccccc2)C(C)(C)C)cc1 (some centres undefined),0.0141 µM
27,CC(C)(C)[C@H](NC(=O)OCc1ccccc1)C(=O)N[C@@H](Cc1ccccc1)[C@@H](O)[C@@H](NCc1ccccc1)C(=O)N[C@@H](CO)c1ccccc1,0.0363 µM
28,COC(=O)CC[C@H](NC(=O)[C@H](NCc1ccc(OC)cc1)[C@H](O)[C@H](Cc1ccccc1)NC(=O)[C@@H](NC(=O)OCc1ccccc1)C(C)C)C(=O)NCc1nc2ccccc2[nH]1,0.011 µM
29,COc1ccc(CN[C@@H](C(=O)N[C@H](C(=O)NCc2nc3ccccc3[nH]2)C(C)C)[C@H](O)[C@H](Cc2ccccc2)NC(=O)[C@H](NC(=O)OCc2nc3cc[nH]cc-3n2)C(C)(C)C)cc1,0.447 µM
30,COc1ccc(CN[C@@H](C(=O)N[C@H](C(=O)NCCN2CCOCC2)C(C)C)[C@H](O)[C@H](Cc2ccccc2)NC(=O)[C@@H](NC(=O)OCc2ccccc2)C(C)C)cc1,0.024 µM

# Continued by falling Ki, values first:
row,Ki,Compound
1,2.69 µM,CCOC(=O)[C@H](NCc1ccc(CN)cc1)[C@H](O)[C@H](Cc1ccccc1)NC(=O)[C@@H](NC(=O)OCc1ccccc1)C(C)C
2,2.51 µM,CC(C)(C)OC(=O)N[C@@H](Cc1ccccc1)[C@@H](O)[C@@H](NCc1ccc(CNC(=O)CCc2nc3ccccc3[nH]2)cc1)C(=O)NC(CO)c1ccccc1 (some centres undefined)
3,2.51 µM,COc1ccc(CN[C@@H](C(=O)NCC(O)c2ccccc2)[C@H](O)[C@H](Cc2ccccc2)NC(=O)[C@@H](NC(=O)OCc2ccccc2)C(C)C)cc1 (some centres undefined)
4,1.51 µM,COc1ccc(CN[C@@H](C(=O)NCC(=O)Nc2cnccc2N)[C@H](O)[C@H](Cc2ccccc2)NC(=O)[C@@H](NC(=O)OCc2ccccc2)C(C)C)cc1
5,1.41 µM,CC(C)[C@H](NC(=O)OCc1ccccc1)C(=O)N[C@@H](Cc1ccccc1)[C@@H](O)[C@@H](NC1CCC(O)CC1)C(=O)N[C@H](C(=O)NCc1ccccc1)C(C)C (stereo in doubt; c)
6,0.229 µM,COc1ccc(CN[C@@H](C(=O)N[C@H](C(=O)NCc2nc3ccccc3[nH]2)C(C)C)[C@H](O)[C@@H](N)Cc2ccccc2)cc1
7,0.162 µM,CC(C)(C)OC(=O)N[C@@H](Cc1ccccc1)[C@@H](O)[C@@H](NCc1ccc(OCCN2CCOCC2)cc1)C(=O)N[C@H]1c2ccccc2CC1O (some centres undefined)
8,0.0912 µM,CC(C)[C@H](NC(=O)[C@H](NCc1ccccc1)[C@H](O)[C@H](Cc1ccccc1)NC(=O)[C@@H](N)C(C)(C)C)C(=O)NCc1ccccc1
9,0.0617 µM,CC(C)[C@H](NC(=O)OCc1ccccc1)C(=O)N[C@@H](Cc1ccccc1)[C@@H](O)[C@@H](NCCc1cc2ccccc2[nH]1)C(=O)N[C@H](C(=O)NCc1ccccc1)C(C)C
10,0.0468 µM,COc1ccc(CN[C@@H](C(=O)NCCC(=O)NCc2nc3ccccc3[nH]2)[C@H](O)[C@H](Cc2ccccc2)NC(=O)[C@@H](NC(=O)OCc2ccccc2)C(C)C)cc1
11,0.0427 µM,CC(C)[C@H](NC(=O)c1ccc2ccccc2n1)C(=O)N[C@@H](Cc1ccccc1)[C@@H](O)[C@@H](NCc1ccccc1)C(=O)N[C@H](C(=O)NCc1ccccn1)C(C)C
12,0.0257 µM,COc1ccc(CN[C@@H](C(=O)N[C@H](C(=O)NCCN(C)C)C(C)C)[C@H](O)[C@H](Cc2ccccc2)NC(=O)[C@@H](NC(=O)OCc2ccccc2)C(C)C)cc1
13,0.024 µM,CC(C)[C@H](NC(=O)[C@H](NCc1ccccc1)[C@H](O)[C@H](Cc1ccccc1)NC(=O)[C@H](CC(N)=O)NC(=O)c1ccc2ccccc2n1)C(=O)NCc1ccccc1
14,0.0191 µM,CC(C)(C)OC(=O)N[C@@H](Cc1ccccc1)[C@@H](O)[C@@H](NCc1ccc(CNC(=O)OCc2ccccc2)cc1)C(=O)N[C@H]1c2ccccc2CC1O (some centres undefined)
15,0.0158 µM,CC(C)(C)[C@H](NC(=O)OCc1ccccc1)C(=O)N[C@@H](Cc1ccccc1)[C@@H](O)[C@@H](NCc1ccc(OCCO)cc1)C(=O)N[C@H]1c2ccccc2CC1O (some centres undefined)
16,0.0151 µM,COc1ccc(CN[C@@H](C(=O)N[C@H](C(=O)NCn2nnc3ccccc32)C(C)C)[C@H](O)[C@H](Cc2ccccc2)NC(=O)[C@@H](NC(=O)OCc2ccccc2)C(C)C)cc1
17,0.0151 µM,CC(C)[C@H](NC(=O)OCc1ccccc1)C(=O)N[C@@H](Cc1ccccc1)[C@@H](O)[C@@H](NCc1ccc(Br)cc1)C(=O)N[C@H](C(=O)NCc1nc2ccccc2[nH]1)C(C)C
18,0.0141 µM,CCCCCCCCOC(=O)N[C@H](C(=O)N[C@@H](Cc1ccccc1)[C@@H](O)[C@@H](NCc1ccccc1)C(=O)N[C@H](C(=O)NCc1ccccc1)C(C)C)C(C)(C)C
19,0.0129 µM,CC(C)[C@H](NC(=O)[C@H](NCc1ccccc1)[C@H](O)[C@H](Cc1ccccc1)NC(=O)[C@@H](NC(=O)CCc1ccc(O)cc1)C(C)(C)C)C(=O)NCc1ccccc1
20,0.0102 µM,COc1ccc(CN[C@@H](C(=O)N[C@H](C(=O)NCc2ccccc2)C(C)C)[C@H](O)[C@H](Cc2ccccc2)NC(=O)[C@@H](NC(=O)N(C)Cc2nc3ccccc3[nH]2)C(C)C)cc1
21,0.00977 µM,COc1cccc(CN[C@@H](C(=O)N[C@H](C(=O)NCc2nc3ccccc3[nH]2)C(C)C)[C@H](O)[C@H](Cc2ccccc2)NC(=O)[C@@H](NC(=O)OCc2ccccc2)C(C)C)c1
22,0.00955 µM,COc1ccc(CN[C@@H](C(=O)N[C@@H]2c3ccccc3CC2O)[C@H](O)[C@H](Cc2ccccc2)NC(=O)[C@@H](NC(=O)OCc2ccccc2)C(C)(C)C)cc1 (some centres undefined)
23,0.00776 µM,COc1ccc(CN[C@@H](C(=O)N[C@H](C(=O)NCc2nc3ccccc3[nH]2)C(C)C)[C@H](O)[C@H](Cc2ccccc2)NC(=O)OC(C)(C)C)cc1
24,0.00562 µM,CC(C)[C@H](NC(=O)[C@H](NCc1ccc(Br)cc1)[C@H](O)[C@H](Cc1ccccc1)NC(=O)[C@@H](NC(=O)c1ccc2ccccc2n1)C(C)(C)C)C(=O)NCc1nc2ccccc2[nH]1
